This note sets out measurements from ChEMBL document CHEMBL5370608, “Selective and Bioavailable HDAC6 2-(Difluoromethyl)-1,3,4-oxadiazole Substrate Inhibitors and Modeling of Their Bioactivation Mechanism” (J Med Chem, 2023).

Series [1] addresses T1, Protein deacetylase HDAC6 (Homo sapiens, UniProt Q9UBN7).
T1 sequence (Q9UBN7 whole entry): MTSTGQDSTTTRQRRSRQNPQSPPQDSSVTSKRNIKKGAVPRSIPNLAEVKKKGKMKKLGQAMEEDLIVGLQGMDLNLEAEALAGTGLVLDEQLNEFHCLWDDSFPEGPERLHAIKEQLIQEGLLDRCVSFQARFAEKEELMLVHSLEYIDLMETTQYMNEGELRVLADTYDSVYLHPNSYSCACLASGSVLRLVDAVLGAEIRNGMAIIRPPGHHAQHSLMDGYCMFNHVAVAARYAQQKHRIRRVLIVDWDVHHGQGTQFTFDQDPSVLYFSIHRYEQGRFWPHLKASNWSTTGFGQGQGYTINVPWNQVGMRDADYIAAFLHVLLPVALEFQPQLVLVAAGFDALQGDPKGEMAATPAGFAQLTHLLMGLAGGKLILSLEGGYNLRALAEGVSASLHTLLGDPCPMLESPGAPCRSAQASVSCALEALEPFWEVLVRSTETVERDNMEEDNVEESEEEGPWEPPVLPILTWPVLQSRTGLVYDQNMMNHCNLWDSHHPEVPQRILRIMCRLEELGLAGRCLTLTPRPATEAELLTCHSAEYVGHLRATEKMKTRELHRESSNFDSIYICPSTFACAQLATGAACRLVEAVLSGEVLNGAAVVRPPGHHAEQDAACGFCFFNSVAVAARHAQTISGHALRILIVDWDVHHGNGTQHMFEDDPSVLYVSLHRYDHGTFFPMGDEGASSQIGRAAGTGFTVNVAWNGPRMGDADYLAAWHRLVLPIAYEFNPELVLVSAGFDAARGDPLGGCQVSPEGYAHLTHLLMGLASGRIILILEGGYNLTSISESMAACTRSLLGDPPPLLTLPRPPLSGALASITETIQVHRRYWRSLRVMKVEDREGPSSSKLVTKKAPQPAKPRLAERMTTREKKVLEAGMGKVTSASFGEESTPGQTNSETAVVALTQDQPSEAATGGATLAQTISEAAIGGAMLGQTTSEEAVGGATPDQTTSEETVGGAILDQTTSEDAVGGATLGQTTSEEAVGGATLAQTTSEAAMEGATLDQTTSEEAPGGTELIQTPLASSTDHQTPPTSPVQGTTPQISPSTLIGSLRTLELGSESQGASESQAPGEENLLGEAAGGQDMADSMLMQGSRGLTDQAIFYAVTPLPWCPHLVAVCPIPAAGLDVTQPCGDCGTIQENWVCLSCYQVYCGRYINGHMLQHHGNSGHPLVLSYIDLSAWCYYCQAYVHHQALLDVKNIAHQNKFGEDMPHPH
Kind of series: Inhibition of full length TEV-cleavable N-terminal His6-tagged human recombinant HDAC6 using Ac-RGK (Ac)-AMC as substrate preincubated for 20 hrs followed by substrate addition and measured after 3 hrs by microplate reader analysis.

For series [2], the target named is T1, Protein deacetylase HDAC6. Kind of series: Inhibition of HDAC6 in human BEAS-2B cells assessed as deacetylation of acetylated histone-3 level incubated for 24 hrs by Western blot analysis. It is filed as cell-based. For orientation: A western blot detects proteins with antibodies after separation by electrophoresis.
The nature of series [3]: Metabolic stability in human liver microsomes assessed as disappearance of parent compound. It is filed as ADME, Microsome. Particulars: read-out: CLH.
Another series deals with T2, Histone deacetylase 8 (Homo sapiens, UniProt Q9BY41).
T2 sequence (Q9BY41 whole entry): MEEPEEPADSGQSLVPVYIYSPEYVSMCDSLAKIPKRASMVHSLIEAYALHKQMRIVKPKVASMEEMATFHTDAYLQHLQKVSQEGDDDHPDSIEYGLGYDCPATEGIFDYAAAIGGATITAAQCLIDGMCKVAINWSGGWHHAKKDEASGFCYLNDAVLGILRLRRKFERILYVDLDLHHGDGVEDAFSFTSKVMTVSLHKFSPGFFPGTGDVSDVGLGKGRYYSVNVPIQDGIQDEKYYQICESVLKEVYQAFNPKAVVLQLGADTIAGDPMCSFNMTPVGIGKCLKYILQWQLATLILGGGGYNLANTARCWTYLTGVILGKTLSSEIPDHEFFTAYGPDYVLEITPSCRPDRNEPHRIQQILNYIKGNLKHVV
Put plainly: Inhibition of human recombinant HDAC8 incubated for 60 mins by fluorimetry analysis.

The next series deals with Histone deacetylase 4 (Homo sapiens, UniProt P56524). Put plainly: Inhibition of human recombinant HDAC4 incubated for 30 mins by fluorimetry analysis.
Histone deacetylase 4, sequence (P56524 whole entry): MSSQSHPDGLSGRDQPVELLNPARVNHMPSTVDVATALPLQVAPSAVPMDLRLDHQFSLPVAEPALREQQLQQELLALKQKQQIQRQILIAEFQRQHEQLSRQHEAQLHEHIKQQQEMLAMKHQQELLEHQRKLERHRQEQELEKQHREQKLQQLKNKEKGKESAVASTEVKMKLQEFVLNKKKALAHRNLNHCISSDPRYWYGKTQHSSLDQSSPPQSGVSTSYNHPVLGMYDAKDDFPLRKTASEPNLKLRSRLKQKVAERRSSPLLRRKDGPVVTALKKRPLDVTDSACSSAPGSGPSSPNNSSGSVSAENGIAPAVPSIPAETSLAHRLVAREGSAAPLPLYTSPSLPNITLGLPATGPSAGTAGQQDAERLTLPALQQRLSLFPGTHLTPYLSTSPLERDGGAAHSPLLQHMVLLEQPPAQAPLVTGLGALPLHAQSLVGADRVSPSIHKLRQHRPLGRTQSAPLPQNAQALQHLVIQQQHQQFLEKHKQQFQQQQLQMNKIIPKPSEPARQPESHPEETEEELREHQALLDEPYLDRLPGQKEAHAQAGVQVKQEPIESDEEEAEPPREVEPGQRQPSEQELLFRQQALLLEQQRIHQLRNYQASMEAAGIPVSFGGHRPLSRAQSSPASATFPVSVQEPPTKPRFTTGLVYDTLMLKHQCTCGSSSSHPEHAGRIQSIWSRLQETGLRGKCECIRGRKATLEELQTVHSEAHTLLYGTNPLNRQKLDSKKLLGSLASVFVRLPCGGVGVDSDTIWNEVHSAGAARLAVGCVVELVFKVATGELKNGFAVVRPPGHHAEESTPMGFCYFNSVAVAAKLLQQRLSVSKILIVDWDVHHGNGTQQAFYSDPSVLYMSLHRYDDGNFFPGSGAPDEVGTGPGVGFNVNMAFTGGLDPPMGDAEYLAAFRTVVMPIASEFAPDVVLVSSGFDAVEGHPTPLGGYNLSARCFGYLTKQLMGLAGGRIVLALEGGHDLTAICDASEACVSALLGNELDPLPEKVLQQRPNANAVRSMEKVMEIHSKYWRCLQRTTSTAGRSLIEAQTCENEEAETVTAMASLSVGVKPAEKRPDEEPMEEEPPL
The next series has as its target Histone deacetylase 9 (Homo sapiens, UniProt Q9UKV0). Kind of series: Inhibition of human recombinant HDAC9 incubated for 30 mins by fluorimetry analysis.
Series [4] has as its target T3, Polyamine deacetylase HDAC10 (Homo sapiens, UniProt Q969S8).
T3 sequence (Q969S8 whole entry): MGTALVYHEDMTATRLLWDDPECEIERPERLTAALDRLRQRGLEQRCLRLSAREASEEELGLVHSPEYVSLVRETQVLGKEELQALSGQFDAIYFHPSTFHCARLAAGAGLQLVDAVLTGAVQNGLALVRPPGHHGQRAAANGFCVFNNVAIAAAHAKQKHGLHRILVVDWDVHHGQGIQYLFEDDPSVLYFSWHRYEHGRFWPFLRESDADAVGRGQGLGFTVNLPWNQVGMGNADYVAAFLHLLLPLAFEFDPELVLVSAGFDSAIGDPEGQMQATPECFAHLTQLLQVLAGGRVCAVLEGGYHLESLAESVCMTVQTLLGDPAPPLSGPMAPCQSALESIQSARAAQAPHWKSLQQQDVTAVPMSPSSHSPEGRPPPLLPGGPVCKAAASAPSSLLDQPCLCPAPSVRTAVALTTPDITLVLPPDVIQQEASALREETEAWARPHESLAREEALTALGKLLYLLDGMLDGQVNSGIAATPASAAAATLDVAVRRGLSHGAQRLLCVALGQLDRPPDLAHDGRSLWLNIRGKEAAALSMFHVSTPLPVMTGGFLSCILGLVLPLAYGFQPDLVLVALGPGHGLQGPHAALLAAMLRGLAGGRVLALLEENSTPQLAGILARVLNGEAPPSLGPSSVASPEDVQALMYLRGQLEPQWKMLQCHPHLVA
Kind of series: Inhibition of human recombinant HDAC10 incubated for 45 mins by fluorimetry analysis.

Series [5] can be described thus: Metabolic stability in mouse hepatocytes assessed as intrinsic clearance at 1 uM measured per 10^6 cells incubated at 2 to 60 mins by LC-MS/MS analysis. Particulars: time 2-60 min, read-out: CLH. The format is ADME, cell-based, Hepatocyte.
Series [6] in a line: Metabolic stability in rat hepatocytes assessed as intrinsic clearance at 1 uM measured per 10^6 cells incubated at 2 to 60 mins by LC-MS/MS analysis. It is filed as ADME, cell-based, Hepatocyte. To be noted: time 2-60 min, read-out: CLH.
Series [7] can be described thus: Half life in Wistar Han rat at 0.5 mg/kg, iv measured upto 24 hrs by LC-MS/MS analysis. The format is ADME, organism-based. Particulars: in vivo.
The nature of series [8]: Chemical stability of compound in sodium carbonate buffer at pH 10 assessed as half life by UPLC analysis. It is filed as physicochemical.

The structures appear in SMILES notation. Bounds are passed on as bounds.

Histone deacetylase 9, sequence (Q9UKV0 whole entry): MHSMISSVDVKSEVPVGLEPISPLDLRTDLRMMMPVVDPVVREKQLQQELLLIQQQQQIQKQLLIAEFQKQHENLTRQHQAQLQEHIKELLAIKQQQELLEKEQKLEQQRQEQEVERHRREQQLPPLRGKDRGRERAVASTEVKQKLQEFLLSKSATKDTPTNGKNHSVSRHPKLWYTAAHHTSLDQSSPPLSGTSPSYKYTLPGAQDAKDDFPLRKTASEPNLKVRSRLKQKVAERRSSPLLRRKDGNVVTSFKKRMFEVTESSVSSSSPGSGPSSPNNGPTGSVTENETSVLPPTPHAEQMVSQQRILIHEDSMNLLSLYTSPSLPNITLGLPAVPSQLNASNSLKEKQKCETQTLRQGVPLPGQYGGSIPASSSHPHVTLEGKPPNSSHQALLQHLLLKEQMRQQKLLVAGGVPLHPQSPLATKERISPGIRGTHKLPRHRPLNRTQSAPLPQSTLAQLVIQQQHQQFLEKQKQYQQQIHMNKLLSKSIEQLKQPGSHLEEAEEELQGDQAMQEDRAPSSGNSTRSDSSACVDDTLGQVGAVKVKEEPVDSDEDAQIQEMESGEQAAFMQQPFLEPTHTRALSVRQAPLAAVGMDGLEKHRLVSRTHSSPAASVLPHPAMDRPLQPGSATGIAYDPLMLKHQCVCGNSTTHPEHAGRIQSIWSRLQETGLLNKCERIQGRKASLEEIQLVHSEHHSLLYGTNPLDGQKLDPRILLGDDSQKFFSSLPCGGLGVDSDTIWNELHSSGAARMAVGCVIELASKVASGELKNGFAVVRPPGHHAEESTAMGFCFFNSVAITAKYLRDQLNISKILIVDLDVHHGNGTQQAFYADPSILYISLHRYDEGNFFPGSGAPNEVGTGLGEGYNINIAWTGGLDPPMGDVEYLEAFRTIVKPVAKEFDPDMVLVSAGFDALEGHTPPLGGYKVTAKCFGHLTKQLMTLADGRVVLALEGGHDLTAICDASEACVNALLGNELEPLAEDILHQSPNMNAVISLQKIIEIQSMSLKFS

For orientation: IC50 means the point on the concentration scale where inhibition reaches its midpoint. One may read the half-life as the time in which the quantity being followed falls by half. In the case of `O=C(NO)c1cnc(NC2(c3ccccc3)CCC(F)(F)CC2)nc1`, the half-inhibitory concentration (IC50) in series [1] is 0.00398 µM; in series [2] it was more than 10 µM; at Histone deacetylase 8, 16 µM; on Histone deacetylase 4 it was 12 µM; on Histone deacetylase 9, 19 µM; in series [4], 18 µM. The microsomal CLint in series [3] was less than 3 µL/min/mg. The results for the hepatocyte CLint at 1 µM in series [5] and in series [6] were 130 µL/min/1e6 cells and 51 µL/min/1e6 cells, respectively. Moreover, in series [7], the half-life is 0.3 h.

Turning to `CS(=O)(=O)NCC(Nc1ncc(-c2nnc(C(F)F)o2)cn1)c1ccc(OC(F)(F)F)cc1` (stereo unspecified), the IC50 in series [1] is 0.00158 µM; in [2] it was more than 10 µM; on Histone deacetylase 8, more than 100 µM; on Histone deacetylase 4 it was 14 µM; on Histone deacetylase 9, 19 µM; in series [4] it was more than 100 µM. Also, the microsomal CLint in [3] was less than 3 µL/min/mg. In series [8], the half-life was 7.2 h.

With `FC(F)c1nnc(-c2ccc(Cn3nnc(-c4ccccn4)n3)nc2)o1`, the IC50 in series [1] is 0.001 µM; in [2] it was more than 10 µM; on Histone deacetylase 8 it was more than 100 µM; at Histone deacetylase 4, more than 100 µM; at Histone deacetylase 9, more than 100 µM; in [4] it was more than 100 µM. The microsomal CLint in series [3] was less than 3 µL/min/mg. For the same compound, the hepatocyte CLint at 1 µM in series [5] and in series [6] was less than 1 µL/min/1e6 cells throughout. The half-life is 7.3 h in series [7] and less than 13.7 h in [8].

In the case of `COc1ccccc1-c1nnn(Cc2ccc(-c3nnc(C(F)F)o3)cn2)n1`, the IC50 in series [1] was 0.00158 µM; in series [2] it was more than 10 µM; on Histone deacetylase 8 it was more than 100 µM; on Histone deacetylase 4 it was more than 100 µM; at Histone deacetylase 9 it was more than 100 µM; in series [4], more than 100 µM. In addition, the microsomal CLint in series [3] was less than 3 µL/min/mg.
